Data published in patent US11787802B2, “Dihydrobenzimidazolones for medical treatment” (C4 Therapeutics, Inc., priority 2017, dated 2023).

Biological target: hCereblon(M1-L442)_hDDB1(M1-H1140) (Homo sapiens (Human), UniProt Q96SW2)
Assay: Fluorescence direct binding protocol (tryptophan fluorescence titration)
Settings: fluorescence titration at 20° C., excited at 280 nm, recorded at 340 nm; protein 5.0 E−8 M; assay buffer 50 mM Hepes 7.4 200 mM NaCl; read-out: Fluorescence h-Cereblon_DDB1 Mean Kd_EQ
Procedure: Fluorescence Direct Binding Protocol
Determination of the affinities of compounds to protein containing one or more tryptophan is measurable by monitoring the fluorescence emission in direct mode. The measurements depending on the protein available amounts are performed either manually in a cuvette on ISS-PC1 photon counting spectrofluorometer or automatically in well plates on a fluorescence plate reader device. Fluorescence titrations are performed at 20° C. in the chosen binding assay buffer by using a defined constant protein concentration against ligand concentration variations. Small aliquots of known ligand concentration solubilized in DMSO were added and the fluorescence, excited at 280 nm, was recorded at 340 nm. The fluorescence intensity was corrected for protein dilution and for the filter effect (Birdsall et al.^69). The corrected fluorescence intensity was plotted against the ligand concentration and fitted using a four-parameter sigmoidal function, from which the equilibrium dissociation constant Kd was computed using the law of mass action assuming a 1:1 protein-ligand complex (Eftink, 1997^70).
Process • 1) Optimization of measurement parameters to minimize protein consumption and to minimize the dilution effect and the DMSO content • 2) Titration measurements of the protein against ligand by at least 12 titration steps to obtain a good s-curve fit • 3) Repeat the same titration measurements with the ligand alone to enable correction • 4) Check the stability of the protein once by titration against DMSO alone • 5) Determination of the molar extinction coefficients of the ligand at 280 and 340 nm with help of an UV-spectrophotometer • 6) Use Excel template for the correction of the measured raw data • 7) Use GraphPad Prism software for the quadratic binding fit and the KD evaluation.

hCereblon(M1-L442)_hDDB1(M1-H1140), sequence (Q96SW2 whole entry): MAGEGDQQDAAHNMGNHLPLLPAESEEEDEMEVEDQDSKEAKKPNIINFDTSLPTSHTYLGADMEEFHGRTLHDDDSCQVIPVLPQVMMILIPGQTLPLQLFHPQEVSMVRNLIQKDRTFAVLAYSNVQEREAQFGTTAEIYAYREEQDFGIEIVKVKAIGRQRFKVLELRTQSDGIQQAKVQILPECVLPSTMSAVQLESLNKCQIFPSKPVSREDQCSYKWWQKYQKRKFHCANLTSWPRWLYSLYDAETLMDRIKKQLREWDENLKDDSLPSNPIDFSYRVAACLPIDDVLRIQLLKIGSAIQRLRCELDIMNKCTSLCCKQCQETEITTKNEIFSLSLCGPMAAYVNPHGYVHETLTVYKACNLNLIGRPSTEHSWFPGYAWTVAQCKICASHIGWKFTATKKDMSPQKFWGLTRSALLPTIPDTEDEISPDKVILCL
hCereblon(M1-L442)_hDDB1(M1-H1140), sequence (Q16531 whole entry partner): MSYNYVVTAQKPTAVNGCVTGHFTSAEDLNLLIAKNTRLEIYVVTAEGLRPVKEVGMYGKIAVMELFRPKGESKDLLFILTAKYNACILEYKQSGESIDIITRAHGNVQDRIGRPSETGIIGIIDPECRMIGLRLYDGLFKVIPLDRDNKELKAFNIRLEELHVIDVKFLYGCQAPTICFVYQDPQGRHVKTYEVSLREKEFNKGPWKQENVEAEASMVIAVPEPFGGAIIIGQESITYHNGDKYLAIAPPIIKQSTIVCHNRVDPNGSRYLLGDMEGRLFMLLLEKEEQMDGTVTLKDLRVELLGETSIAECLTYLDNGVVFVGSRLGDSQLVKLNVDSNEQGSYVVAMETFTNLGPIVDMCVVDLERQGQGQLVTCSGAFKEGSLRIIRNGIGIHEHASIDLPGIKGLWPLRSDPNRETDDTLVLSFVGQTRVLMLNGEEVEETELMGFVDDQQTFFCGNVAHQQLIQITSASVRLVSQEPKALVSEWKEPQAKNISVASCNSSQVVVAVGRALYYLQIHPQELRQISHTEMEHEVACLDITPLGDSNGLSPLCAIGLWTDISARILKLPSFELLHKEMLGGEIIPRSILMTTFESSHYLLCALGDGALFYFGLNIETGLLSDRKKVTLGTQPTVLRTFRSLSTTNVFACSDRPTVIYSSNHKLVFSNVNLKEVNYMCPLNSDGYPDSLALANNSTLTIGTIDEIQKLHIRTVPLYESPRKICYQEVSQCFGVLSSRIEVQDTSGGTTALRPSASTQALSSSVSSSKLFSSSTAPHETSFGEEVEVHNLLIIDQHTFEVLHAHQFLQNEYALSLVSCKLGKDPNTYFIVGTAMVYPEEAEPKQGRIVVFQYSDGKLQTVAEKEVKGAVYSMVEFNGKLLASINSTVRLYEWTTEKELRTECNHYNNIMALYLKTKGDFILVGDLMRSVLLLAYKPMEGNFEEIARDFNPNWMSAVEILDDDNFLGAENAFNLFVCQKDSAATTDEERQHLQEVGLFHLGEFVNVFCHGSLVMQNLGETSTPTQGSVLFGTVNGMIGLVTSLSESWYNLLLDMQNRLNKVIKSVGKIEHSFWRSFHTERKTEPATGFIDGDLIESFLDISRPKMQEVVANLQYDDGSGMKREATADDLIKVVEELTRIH

SMILES	Kd [nM]
CCc1nc2cc(C(=O)NCCOCCOCCNC(=O)C[C@@H]3N=C(c4ccc(Cl)cc4)c4c(sc(C)c4C)-n4c(C)nnc43)ccc2n1-c1ccc2[nH]c(=O)[nH]c2c1 [Example B, (S)—N-(2-(2-(2-(2-(4-(4-Chlorophenyl)-2,3,9-trimethyl-6H-thieno[3,2-f][1,2,4]triazolo[4,3-a][1,4]diazepin-6-yl)acetamido)ethoxy)ethoxy)ethyl)-2-ethyl-2′-oxo-2′,3′-dihydro-1′H-[1,5′-bibenzo[d]imidazole]-5-carboxamide]	51
CNC(=O)c1ccc2c(c1)nc(-c1ccnc(OC)c1)n2-c1ccc2[nH]c(=O)[nH]c2c1 [Example 108, 2-(2-Methoxypyridin-4-yl)-N-methyl-2′-oxo-2′,3′-dihydro-1′H-[1,5′-bibenzo[d]imidazole]-5-carboxamide]	107
Cn1c(=O)n(C)c2cc(Nc3ccccc3N)ccc21 [Example 50, 5-((2-Aminophenyl)amino)-1,3-dimethyl-1,3-dihydro-2H-benzo[d]imidazol-2-one]	11
O=C(Nc1cccc(-c2cnco2)c1)c1ccc2[nH]c(=O)[nH]c2c1 [Example 142, N-(3-(Oxazol-5-yl)phenyl)-2-oxo-2,3-dihydro-1H-benzo[d]imidazole-5-carboxamide]	11
COC(=O)c1ccc2nc(C(C)C)n(-c3ccc4[nH]c(=O)[nH]c4c3)c2c1 [Example 48, Methyl 2-isopropyl-2′-oxo-2′,3′-dihydro-1′H-[1,5′-bibenzo[d]imidazole]-6-carboxylate]	11
CNC(=O)c1ccc2c(c1)nc(C(C)C)n2-c1cnc2[nH]c(=O)[nH]c2c1 [Example 79, 2-Isopropyl-N-methyl-1-(2-oxo-1,3-dihydroimidazo[4,5-b]pyridin-6-yl)benzimidazole-5-carboxamide]	4
Cn1c(=O)[nH]c2ccc(Nc3ccccc3N)cc21 [Example 52, 6-((2-Aminophenyl)amino)-1-methyl-1,3-dihydro-2H-benzo[d]imidazol-2-one]	6
CNC(=O)CCc1nc2ccccc2n1-c1ccc2[nH]c(=O)[nH]c2c1 [Example 81, N-Methyl-3-[1-(2-oxo-1,3-dihydrobenzimidazol-5-yl)benzimidazol-2-yl]propanamide]	4
CCCc1nc2cc(C(=O)NC)ccc2n1-c1ccc2[nH]c(=O)[nH]c2c1 [Example 14, N-Methyl-2′-oxo-2-propyl-2′,3′-dihydro-1′H-[1,5′-bibenzo[d]imidazole]-5-carboxamide]	321
CC(C)c1nc2ccccc2n1-c1ccc2[nH]c(=O)n(C)c2c1 [Example 35, 2-Isopropyl-3′-methyl-1′,3′-dihydro-2′H-[1,5′-bibenzo[d]imidazol]-2′-one]	24
CNC(=O)c1ccc(C(=O)Nc2ccc3[nH]c(=O)[nH]c3c2)cn1 [Example 133, N2-Methyl-N5-(2-oxo-2,3-dihydro-1H-benzo[d]imidazol-5-yl)pyridine-2,5-dicarboxamide]	121
COC(=O)c1ccc2c(c1)nc(-c1cc(-c3cncn3C)nc3ccccc13)n2-c1ccc2[nH]c(=O)[nH]c2c1 [Example 107, Methyl 2-(2-(1-methyl-1H-imidazol-5-yl)quinolin-4-yl)-2′-oxo-2′,3′-dihydro-1′H-[1,5′-bibenzo[d]imidazole]-5-carboxylate]	831
CNC(=O)c1ccc2c(c1)nc(-c1cn(C)cn1)n2-c1ccc2[nH]c(=O)[nH]c2c1 [Example 65, N-Methyl-2-(1-methyl-1H-imidazol-4-yl)-2′-oxo-2′,3′-dihydro-1′H-[1,5′-bibenzo[d]imidazole]-5-carboxamide]	9
COC(=O)c1ccc2c(c1)CN(c1ccc3[nH]c(=O)[nH]c3c1)C2=O [Example 112, Methyl 1-oxo-2-(2-oxo-1,3-dihydrobenzimidazol-5-yl)isoindoline-5-carboxylate]	57
CC(=O)Nc1ccc(NC(=O)Nc2ccc3[nH]c(=O)[nH]c3c2)cc1 [Example 101, N-(4-(3-(2-oxo-2,3-dihydro-1H-benzo[d]imidazol-5-yl)ureido)phenyl)acetamide]	14
O=C(Nc1ccc2[nH]c(=O)[nH]c2c1)N1CCN(Cc2ccc(Cl)cc2)CC1 [Example 135, 4-(4-Chlorobenzyl)-N-(2-oxo-2,3-dihydro-1H-benzo[d]imidazol-5-yl)piperazine-1-carboxamide]	7
CC(=O)Nc1ccc2c(c1)CCN2Cc1ccc2[nH]c(=O)[nH]c2c1 [Example 150, N-(1-((2-Oxo-2,3-dihydro-1H-benzo[d]imidazol-5-yl)methyl)indolin-5-yl)acetamide]	3

SMILES	Kd [nM]
O=c1[nH]c2ccc(NS(=O)(=O)C3CCNCC3)cc2[nH]1 [Example 134, N-(2-Oxo-2,3-dihydro-1H-benzo[d]imidazol-5-yl)piperidine-4-sulfonamide]	7
CNC(=O)c1ccc2c(c1)nc(C1CCOCC1)n2-c1ccc2[nH]c(=O)[nH]c2c1 [Example 64, N-Methyl-2′-oxo-2-(tetrahydro-2H-pyran-4-yl)-2′,3′-dihydro-1′H-[1,5′-bibenzo[d]imidazole]-5-carboxamide]	45
O=C(Nc1ccccc1)c1ccc2[nH]c(=O)[nH]c2c1 [Example 77, 2-Oxo-N-phenyl-2,3-dihydro-1H-benzo[d]imidazole-5-carboxamide]	42
O=C(Nc1ccc2[nH]c(=O)[nH]c2c1)C1CCc2ccccc21 (stereo not shown) [Example 69, N-(2-Oxo-2,3-dihydro-1H-benzo[d]imidazol-5-yl)-2,3-dihydro-1H-indene-1-carboxamide]	29
CN(C(=O)c1cnc2[nH]c(=O)[nH]c2c1)c1ccccc1 [Example 76, N-Methyl-2-oxo-N-phenyl-2,3-dihydro-1H-imidazo[4,5-b]pyridine-6-carboxamide]	41
CNC(=O)c1ccc2c(c1)nc(-c1cnc[nH]1)n2-c1ccc2[nH]c(=O)[nH]c2c1 [Example 15, 2-(1H-Imidazol-4-yl)-N-methyl-2′-oxo-2′,3′-dihydro-1′H-[1,5′-bibenzo[d]imidazole]-5-carboxamide]	49
CNC(=O)c1ccc(Nc2ccc3[nH]c(=O)[nH]c3c2)c(N)c1 [Example 1, 3-Amino-N-methyl-4-[(2-oxo-1,3-dihydrobenzimidazol-5-yl)amino]benzamide]	587
CNC(=O)c1ccc2c(c1)nc(-c1ccncc1)n2-c1ccc2[nH]c(=O)[nH]c2c1 [Example 11, N-Methyl-2′-oxo-2-(pyridin-4-yl)-2′,3′-dihydro-1′H-[1,5′-bibenzo[d]imidazole]-5-carboxamide]	8
O=C(Nc1ccc2[nH]c(=O)[nH]c2c1)c1ccccc1-c1ccncc1 [Example 136, N-(2-Oxo-2,3-dihydro-1H-benzo[d]imidazol-5-yl)-2-(pyridin-4-yl)benzamide]	79
COC(=O)c1ccc(Nc2ccc3[nH]c(=O)[nH]c3c2)c(N)c1 [Example 9, Methyl 3-amino-4-((2-oxo-2,3-dihydro-1H-benzo[d]imidazol-5-yl)amino)benzoate]	29
Nc1ccc2c(c1)CCN2C(=O)Nc1ccc2[nH]c(=O)[nH]c2c1 [Example 121, 5-Amino-N-(2-oxo-2,3-dihydro-1H-benzo[d]imidazol-5-yl)indoline-1-carboxamide]	65
CNC(=O)c1ccc2c(c1)nc(C(C)(C)C)n2-c1ccc2[nH]c(=O)[nH]c2c1 [Example 46, 2-(tert-Butyl)-N-methyl-2′-oxo-2′,3′-dihydro-1′H-[1,5′-bibenzo[d]imidazole]-5-carboxamide]	10
Cc1sc2c(c1C)C(c1ccc(Cl)cc1)=N[C@@H](CC(=O)NCCOCCOCCNC(=O)c1ccc3c(c1)nc(-c1ccnc4ccccc14)n3-c1ccc3[nH]c(=O)[nH]c3c1)c1nnc(C)n1-2 [Example C, (S)—N-(2-(2-(2-(2-(4-(4-Chlorophenyl)-2,3,9-trimethyl-6H-thieno[3,2-f][1,2,4]triazolo[4,3-a][1,4]diazepin-6-yl)acetamido)ethoxy)ethoxy)ethyl)-2′-oxo-2-(quinolin-4-yl)-2′,3′-dihydro-1′H-[1,5′-bibenzo[d]imidazole]-5-carboxamide]	19
CC(=O)NC1CCN(C(=O)c2ccc3[nH]c(=O)[nH]c3c2)CC1 [Example 29, N-(1-(2-Oxo-2,3-dihydro-1H-benzo[d]imidazole-5-carbonyl)piperidin-4-yl)acetamide]	20
O=C(Nc1ccc2[nH]c(=O)[nH]c2c1)[C@@H]1CCCc2ccccc21 [Example 72, (R)—N-(2-Oxo-2,3-dihydro-1H-benzo[d]imidazol-5-yl)-1,2,3,4-tetrahydronaphthalene-1-carboxamide]	14
O=C(c1cnc2[nH]c(=O)[nH]c2c1)N1CCc2ccccc21 [Example 55, 6-(Indoline-1-carbonyl)-1,3-dihydro-2H-imidazo[4,5-b]pyridin-2-one]	< 1
Cn1cncc1-c1cc(-c2nc3ccccc3n2-c2ccc3c(c2)n(C)c(=O)n3C)c2ccccc2n1 [Example 31, 1′,3′-Dimethyl-2-(2-(1-methyl-1H-imidazol-5-yl)quinolin-4-yl)-1′,3′-dihydro-2′H-[1,5′-bibenzo[d]imidazol]-2′-one]	7
